Data taken from US8951982B2, “Methods and compositions for the treatment of eye disorders with increased intraocular pressure” (Sylentis S.A.U., priority 2004, dated 2015).
d = 2'-deoxy (DNA)

Legend:
[1] = test system: Normotensive New Zealand White rabbits; assay: In vivo rabbit model of IOP (contact tonometer); details: for IOP Reduction (% of saline control): mean normalized maximum percentage of IOP reduction ± SD, topical to corneal surface, once daily for four consecutive days; for decrease of IOP over a saline control: figure legends (FIGS. 5-8), 256 μg dose of siRNA per administration
Protocol: Normotensive New Zealand White rabbits (males, 2-3 kg) were used in the in vivo assays. The animals were kept in individual cages with free access to food and water. Animals were submitted to artificial 12 hours light/darkness cycles to avoid uncontrolled circadian oscillations of IOP and all experiments were performed at the same time of day to control for any fluctuations in IOP due to circadian oscillations. Animal handling and treatment were carried out in accordance with the European Communities Council Directive (86/609/EEC) and the statement of the Association for Research in Vision and Ophthalmology on the Use of Animals in Ophthalmic and Vision Research. Each animal was used for only one experiment.
IOP measurements were done using a contact tonometer (TonoPen XL, Mentor, Norwell, Mass.) due to past success of measuring intraocular pressures within the range of 3 to 30 mm Hg in rabbits (Abrams et al., 1996, Invest Ophthalmol Vis Sci. 37:940-4). Measurements were performed by delicately applying the tonometer's sensor to the corneal surface of the animal. All measurements fell within the 3 to 30 mm Hg interval with the mean baseline value of intraocular pressure being 17.0±0.39 mm Hg for untreated animals (n=100). In order to avoid distress to the animal, rabbits were topically anesthetized (10 μl of oxibuprocaine/tetracaine, 0.4%/1%, in a saline solution (1/4 v:v)) prior to IOP measurement.
Commercially available drugs were typically administered to the animals by instilling a small volume (typically 40 μl) on the corneal surface. Contralateral eyes were treated with the vehicle alone and were used as controls in each experiment.
siRNA molecules or commercially available drugs were typically administered to the animals as follows. Doses of siRNA in saline solution (0.9% w/v) to a final volume of 40 μl were applied to the corneal surface of one eye each day during four consecutive days. The opposite eye was taken as a control and 40 μl of sterile saline (0.9% w/v) was instilled on it at the same time points. Commercially available drugs were typically administered to the animals by instilling a small volume (typically 40 μl) on the corneal surface. Contralateral eyes were treated with the vehicle alone and were used as controls in each experiment. The IOP was measured before each application and at 2 h, 4 h and 6 h following the instillation for 10 days.
The data are summarized in Table 2 where values represent the mean of the normalized maximum percentage of IOP reduction after siRNA treatment and their standard deviations. The decrease in IOP was statistically significant for all the treated targets.

PTGS2 = assay: siRNA transfection of cells, real time PCR of target gene expression; type: cell-based; details: 100 nM siRNA, mean ± SD
Protocol: Cells (either NPE, OMDC, or HEK293 cells) were incubated with various siRNA molecules and assayed for expression of the native mRNA corresponding to the siRNA molecule. One day prior to transfection, 2−4×10^5 cells were seeded into each well of a 6 well plate in 3 ml of growth medium (DMEM, 10% serum, antibiotics and glutamine) and incubated under normal growth conditions (37° C. and 5% CO2). Lipofectamine 2000 Reagent (Invitrogen Corporation, Carlsbad, Calif.) was used to transfect the cells with the siRNA molecules. The protocol supplied by the manufacturer was followed. Briefly, siRNA molecules were added to cells that were 30%-50% confluent to a final concentration of 100 nM. Prior to addition to the cells, the siRNA molecule was diluted in 250 μl DMEM and incubated at room temperature for 5 minutes. The siRNA was then mixed with 6 μl of Lipofectamine 2000 Reagent that also had been diluted in 250 μl DMEM and the mixture was incubated at room temperature for 20 minutes. The siRNA/Lipofectamine mixture was added to the cells drop-wise with 2 ml of fresh growth medium low in antibiotics. After swirling the plates to ensure uniform distribution of the transfection complexes, the cells were incubated under normal growth conditions for 24 hours. After incubation with either of the transfection complexes, the medium was removed and replaced with 3 ml of fresh complete growth medium. mRNA was collected from cells at 24, 48 and 72 hours post-transfection.
After transfection and incubation with a siRNA molecule, total RNA fractions were extracted from cells using protocols well known in the art. The effect of siRNAs on target gene expression was analyzed by real time PCR and semi-quantitative PCR according to standard protocols. Approximately 250 ng of total RNA was used for reverse transcription followed by PCR amplification with specific primers for the target gene in a reaction mixture containing SYBR Green I Dye (Applied Biosystems, Foster City, Calif.). Basic PCR conditions comprised an initial step of […], followed by 40 cycles of 5 s at 95° C., 10 s at 62° C. and 15 s at 72° C. Quantification of beta-actin mRNA was used as a control for data normalization.
The values represent the mean of the percentage of siRNA interference of each gene expression once normalized with the control cells and their standard deviations.

Row | Substance | IOP Reduction (% of saline control) [1] | also measured
1 | SEQ ID NO: 1850: siRNA targeting PTGS1; rabbit homolog of SEQ ID NO: 322 (CGUGAGCUAUUACACGCGU; 3' dTdT, sugars by position and backbone not given here; duplex siRNA; listed as Oryctolagus sp.) | 14.62 ± 1.93% | 
2 | SEQ ID NO: 477: siRNA targeting PTGS2 (CACUGCCUCAAUUCAGUCU; 3' dTdT, sugars by position and backbone not given here; listed as Homo sapiens) |  | % of gene transcript level in control cells (PTGS2; 24 h post-transfection): 75.45 ± 14.71%; % of gene transcript level in control cells (PTGS2; 48 h post-transfection): 61.83 ± 16.96%
3 | SEQ ID NO: 1859: siRNA targeting AGTR1; rabbit homolog of SEQ ID NO: 705 (ACUCAAGACUGUGGCCAGU; 3' dTdT, sugars by position and backbone not given here; duplex siRNA; listed as Oryctolagus sp.) | 9.72 ± 1.35% | 
4 | SEQ ID NO: 1399: siRNA targeting ATP1A1 (ATPase, Na+/K+ transporting, alpha 1 polypeptide) (CUGGAACUCUGACUCAGAA; 3' dTdT, sugars by position and backbone not given here; listed as Homo sapiens) | 18.13 ± 1.39% | 
5 | SEQ ID NO: 189: siRNA targeting human acetylcholinesterase (ACHE) (CCGUGAGCUGAGCGAGGAC; two-thymidine 3' overhang, other chemistry not given here; listed as Homo sapiens) |  | decrease of IOP over a saline control [1]: 25%
6 | SEQ ID NO: 1838: siRNA targeting rabbit carbonic anhydrase II; rabbit homolog of SEQ ID NO: 73 (GAUUGGCAGUGCUACACCA; 3' dTdT, sugars by position and backbone not given here; duplex siRNA; listed as Oryctolagus sp.) | 24.84 ± 3.41% | 
7 | SEQ ID NO: 774: siRNA targeting AGTR2 (angiotensin II receptor, type 2) (GCAUCUUAUAUAGUUCCCC; two-thymidine 3' overhang, other chemistry not given here; listed as Homo sapiens) | 11.22 ± 1.53% | 
8 | SEQ ID NO: 1820: siRNA targeting ATP1B2 (ATPase, Na+/K+ transporting, beta 2 polypeptide) (GUUCCACGUGAACUACACA; 3' dTdT, sugars by position and backbone not given here; duplex siRNA; listed as Homo sapiens) | 16.32 ± 0.91% | 
9 | SEQ ID NO: 1860: siRNA targeting ACE1; rabbit homolog of SEQ ID NO: 866 (CUGGAACUAUAACACCAAC; two-thymidine 3' overhang, other chemistry not given here; listed as Oryctolagus sp.) | 17.51 ± 1.28% | 
10 | SEQ ID NO: 1841: siRNA targeting rabbit adrenergic, beta-2-, receptor; rabbit homolog of SEQ ID NO: 139 (CAUCGUGCACGUGAUCCAG; 3' dTdT, sugars by position and backbone not given here; duplex siRNA; listed as Oryctolagus sp.) | 21.18 ± 1.88% | 
11 | SEQ ID NO: 522: siRNA targeting carbonic anhydrase XII (CA12) (AUGAUCAACAACUUCCGGC; two-thymidine 3' overhang, other chemistry not given here; listed as Homo sapiens) | 24.30 ± 1.29% | 
12 | SEQ ID NO: 426: siRNA targeting PTGS2 (prostaglandin endoperoxide synthase 2) (GCAGGCUAAUACUGAUAGG; 3' dTdT, sugars by position and backbone not given here; listed as Homo sapiens) | 23.78 ± 2.27% | % of gene transcript level in control cells (PTGS2; 24 h post-transfection): 68.68 ± 12.48%; % of gene transcript level in control cells (PTGS2; 48 h post-transfection): 70.17 ± 19.21%; decrease of IOP over a saline control [1]: 22%
13 | SEQ ID NO: 421: siRNA targeting PTGS2 (CACAACAGAGUAUGCGAUG; 3' dTdT, sugars by position and backbone not given here; listed as Homo sapiens) |  | % of gene transcript level in control cells (PTGS2; 24 h post-transfection): 81.00 ± 13.54%; % of gene transcript level in control cells (PTGS2; 48 h post-transfection): 66.85 ± 18.67%
14 | SEQ ID NO: 1858: siRNA, rabbit homolog of SEQ ID NO: 619; target printed ADRAM (GAACUUUCAUGAGGACACC; 3' dTdT, sugars by position and backbone not given here; duplex siRNA; listed as Oryctolagus sp.) | 17.48 ± 1.30% | 
15 | SEQ ID NO: 105: siRNA targeting adrenergic, beta-1-, receptor (ADRB1) (CGACCCCAAGUGCUGCGAC; 3' dTdT, sugars by position and backbone not given here; listed as Homo sapiens) | 28.04 ± 2.98% | decrease of IOP over a saline control [1]: 25%
16 | SEQ ID NO: 1856: siRNA, rabbit homolog of SEQ ID NO: 546; target printed ADRAIA (GACCGACAAAUCCGACUCG; 3' dTdT, sugars by position and backbone not given here; duplex siRNA; listed as Oryctolagus sp.) | 9.51 ± 1.04% | 
17 | SEQ ID NO: 139: siRNA targeting human adrenergic, beta-2-, receptor (ADRB2) (CAUUGUGCAUGUGAUCCAG; listed as RNA, chemistry not given here; listed as Homo sapiens) |  | decrease of IOP over a saline control [1]: 22%
18 | SEQ ID NO: 1848: siRNA targeting rabbit selectin E (SELE); rabbit homolog of SEQ ID NO: 262 (GCCAACUUGUAAAGCUGUG; 3' dTdT, sugars by position and backbone not given here; duplex siRNA; listed as Oryctolagus sp.) | 21.80 ± 1.74% | 
19 | SEQ ID NO: 1846: siRNA targeting rabbit acetylcholinesterase; rabbit homolog of SEQ ID NO: 189 (CCGUGAGCUGAGUGAGGAC; two-thymidine 3' overhang, other chemistry not given here; listed as Oryctolagus sp.) | 25.25 ± 2.70% | 
20 | SEQ ID NO: 5: siRNA targeting carbonic anhydrase IV (CA4) (CAUCGUCACCACCAAGGCA; two-thymidine 3' overhang, other chemistry not given here; listed as Homo sapiens) | 14.47 ± 5.00% | decrease of IOP over a saline control [1]: 16%
